According to ChEMBL document CHEMBL1142670, “Synthesis, nicotinic acetylcholine receptor binding, and antinociceptive properties of 3'-substituted deschloroepibatidine analogues. Novel nicotinic antagonists” (J Med Chem, 2005):

Legend:
[1] = species on record: Mus musculus; experiment: Effective dose to induce hypothermia in mouse was determined; assay type: functional
[2] = species on record: Mus musculus; experiment: Effective dose to induce antinociception in mouse determined in hotplate test; assay type: functional
[3] = species on record: Mus musculus; experiment: Effective dose to induce antinociception in mouse determined in tail-flick test; assay type: functional
[4] = species on record: Mus musculus; experiment: Effective dose to induce spontaneous activity in mouse was determined; assay type: functional
[5] = tested on: Mus musculus; experiment: Anesthetic dose in hotplate test in mouse; assay type: functional
[6] = tested on: Mus musculus; experiment: Anesthetic dose in mouse in tail-flick test; assay type: functional
[7] = tested on: Mus musculus; experiment: Effect on body temperature of mouse was determined at 0.01 ug/kg; assay type: functional
[8] = target: Neuronal acetylcholine receptor subunit alpha-7 (Rattus norvegicus, UniProt Q05941); experiment: Inhibition of [125I]-iodo-MLA binding to Nicotinic acetylcholine receptor alpha-7 in rat cerebral cortex; assay type: tissue-based
Sequence of Neuronal acetylcholine receptor subunit alpha-7 (Q05941 whole entry): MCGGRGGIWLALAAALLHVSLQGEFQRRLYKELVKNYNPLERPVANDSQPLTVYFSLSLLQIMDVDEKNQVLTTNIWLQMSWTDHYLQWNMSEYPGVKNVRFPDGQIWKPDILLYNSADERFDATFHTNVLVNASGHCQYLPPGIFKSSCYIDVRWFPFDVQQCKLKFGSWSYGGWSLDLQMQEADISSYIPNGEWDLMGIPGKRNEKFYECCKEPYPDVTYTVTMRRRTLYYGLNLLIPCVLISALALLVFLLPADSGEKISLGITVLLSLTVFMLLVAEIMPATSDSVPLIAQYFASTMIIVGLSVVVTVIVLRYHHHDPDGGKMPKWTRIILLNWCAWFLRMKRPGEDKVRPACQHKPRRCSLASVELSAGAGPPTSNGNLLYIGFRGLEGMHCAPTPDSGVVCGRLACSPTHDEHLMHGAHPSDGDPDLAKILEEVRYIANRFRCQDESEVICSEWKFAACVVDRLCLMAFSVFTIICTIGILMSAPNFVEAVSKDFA

[9] = target: Neuronal acetylcholine receptor; alpha4/beta2 (Rattus norvegicus, UniProt P09483+P12390); experiment: Inhibition of [3H]epibatidine binding to Nicotinic acetylcholine receptor alpha4-beta2 in rat cerebral cortex; assay type: tissue-based
Sequence of Neuronal acetylcholine receptor; alpha4/beta2 (P09483 whole entry): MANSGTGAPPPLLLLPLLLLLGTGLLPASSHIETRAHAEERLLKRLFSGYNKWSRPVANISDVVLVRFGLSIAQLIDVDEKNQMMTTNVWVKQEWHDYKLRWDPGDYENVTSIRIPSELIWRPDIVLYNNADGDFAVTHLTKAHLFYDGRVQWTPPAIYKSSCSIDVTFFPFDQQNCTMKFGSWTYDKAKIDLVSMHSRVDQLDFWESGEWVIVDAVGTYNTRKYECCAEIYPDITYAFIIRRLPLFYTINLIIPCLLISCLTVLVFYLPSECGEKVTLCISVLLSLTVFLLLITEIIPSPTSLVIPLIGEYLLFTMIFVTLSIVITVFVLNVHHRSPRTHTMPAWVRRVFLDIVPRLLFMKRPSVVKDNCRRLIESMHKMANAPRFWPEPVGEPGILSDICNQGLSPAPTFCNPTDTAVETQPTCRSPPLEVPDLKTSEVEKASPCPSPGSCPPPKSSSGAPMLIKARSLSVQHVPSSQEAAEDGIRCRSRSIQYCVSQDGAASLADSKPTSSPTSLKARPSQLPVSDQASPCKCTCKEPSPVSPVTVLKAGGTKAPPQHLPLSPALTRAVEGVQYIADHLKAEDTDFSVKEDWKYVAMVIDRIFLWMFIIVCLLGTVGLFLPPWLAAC
Sequence of Neuronal acetylcholine receptor; alpha4/beta2 (P12390 whole entry): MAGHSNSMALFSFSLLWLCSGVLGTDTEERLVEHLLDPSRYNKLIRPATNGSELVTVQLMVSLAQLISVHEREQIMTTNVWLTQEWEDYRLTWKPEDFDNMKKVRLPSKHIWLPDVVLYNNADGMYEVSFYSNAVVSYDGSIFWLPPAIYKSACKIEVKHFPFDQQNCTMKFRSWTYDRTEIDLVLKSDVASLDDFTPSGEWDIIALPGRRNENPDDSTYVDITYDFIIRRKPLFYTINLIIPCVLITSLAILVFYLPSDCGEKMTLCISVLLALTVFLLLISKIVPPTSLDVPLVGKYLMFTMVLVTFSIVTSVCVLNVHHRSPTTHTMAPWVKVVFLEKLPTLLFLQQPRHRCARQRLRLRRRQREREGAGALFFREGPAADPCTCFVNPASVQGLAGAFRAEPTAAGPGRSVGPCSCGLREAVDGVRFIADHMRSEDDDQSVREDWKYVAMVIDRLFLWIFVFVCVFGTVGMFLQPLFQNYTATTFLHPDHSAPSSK

[10] = tested on: Mus musculus; experiment: Effect on body temperature of mouse was determined at 10 ug/kg; assay type: functional
[11] = tested on: Mus musculus; experiment: Anesthetic effect in hotplate test in mouse at 10 ug/kg; assay type: functional
[12] = tested on: Mus musculus; experiment: Anesthetic effect in hotplate test in mouse at 0.1 ug/kg; assay type: functional
[13] = tested on: Mus musculus; experiment: Anesthetic effect in mouse in hotplate test at 20 ug/kg; assay type: functional
[14] = Effect on body temperature of mouse was measured in tail-flick test at the rate 500 ug/kg; assay type: functional
[15] = tested on: Mus musculus; experiment: Effect on body temperature of mouse was determined at 0.02 ug/kg; assay type: functional
[16] = tested on: Mus musculus; experiment: Anesthetic effect in mouse in hotplate test at 10 ug/kg; assay type: functional
[17] = Mus musculus, Tail, read-out: ED50

Compound | ED50 ([1]; Mus musculus, read-out: ED50) [µg/kg] | ED50 ([2]; Mus musculus, read-out: ED50) [µg/kg] | ED50 [3, 17] [µg/kg] | ED50 ([4]; Mus musculus, read-out: ED50) [µg/kg] | AD50 [5] [µg/kg] | AD50 [6] [µg/kg] | Effect [7] [%] | Ki [8] [nM] | Ki [9] [nM] | Effect [10] [%] | Anesthetic effect [11] [%] | Anesthetic effect [12] [%] | ED50 [2] [µg/kg] | ED50 [3] [µg/kg] | ED50 [4] [µg/kg] | Anesthetic effect [13] [%] | Increase [14] [%] | Effect [15] [%] | ED50 [1] [µg/kg] | Anesthetic effect [16] [%]
C=Cc1cncc(C2CC3CCC2N3)c1 (centres undefined) | 450 | 800 | 1000 | 200 | 100 | 2.4 | 0 | 344 | 0.26 | – | – | – | – | – | – | – | – | – | – | –
CN1C2CCC1C(c1cncc(I)c1)C2 (centres undefined) | 340 | 370 | 600 | 30 | – | 0.04 | – | 33.2 | 0.029 | 0 | 0 | – | – | – | – | – | – | – | – | –
Brc1cncc(C2CC3CCC2N3)c1 (centres undefined) | 70 | 570 | 1200 | 100 | 0.78 | 15 | 0 | 164 | 0.05 | – | – | – | – | – | – | – | – | – | – | –
C#Cc1cncc(C2CC3CCC2N3)c1 (centres undefined) | 50 | 560 | 1000 | 1 | – | 6 | 0 | 5 | 0.02 | – | – | 0 | – | – | – | – | – | – | – | –
Ic1cncc(C2CC3CCC2N3)c1 (single isomer, unassigned; (+)) | – | – | – | – | – | 1.2 | – | 179 | 0.045 | – | – | – | 60 | 780 | 91 | 15 | 6 | – | – | –
Clc1cncc(C2CC3CCC2N3)c1 (centres undefined) | 150 | 230 | 300 | 40 | 15 | 0.2 | – | 50.6 | 0.055 | – | – | – | – | – | – | – | – | 0 | – | –
Ic1cncc(C2CC3CCC2N3)c1 (stereo in doubt; 3d) | 780 | – | 800 | – | 0.24 | 0.1 | 0 | 150 | – | – | – | – | 900 | – | 130 | – | – | – | – | –
CN1CCC[C@H]1c1cccnc1 [NICOTINE] | 1000 | 650 | 1300 | 500 | – | – | – | – | – | – | – | – | – | – | – | – | – | – | – | –
Fc1cncc(C2CC3CCC2N3)c1 (centres undefined) | 150 | 50 | 80 | 23 | – | 0.07 | – | > 1000 | – | – | – | – | – | – | – | 35 | – | 0 | – | –
Nc1cncc(C2CC3CCC2N3)c1 (centres undefined) | 2700 | 3100 | 4700 | 900 | 6.9 | 1.6 | 0 | 732 | 0.097 | – | – | – | – | – | – | – | – | – | – | –
Ic1cncc(C2CC3CCC2N3)c1 (single isomer, unassigned; (-)) | – | – | – | – | – | 0.11 | – | 156 | 0.048 | – | – | – | 210 | 940 | 351 | – | – | – | 480 | 15
Clc1ccc(C2CC3CCC2N3)cn1 (centres undefined) [EPIBATIDINE] | 4 | 4 | 6 | 1 | – | – | – | – | – | – | – | – | – | – | – | – | – | – | – | –
